In patent US11629160B2, “Corrole-based frameworks and methods of use thereof” (University of South Florida, priority 2019, dated 2023):

Test: Singlet oxygen (1O2) generation, DPBF scavenger under 635 nm laser
Details: 50 μg in 1.0 ml NMP, DPBF 10 μM, 635 nm laser 0.18 W/cm^2, absorbance at 415 nm
Description: Singlet Oxygen (^1O2) Generation. In a typical experiment, 50 μg of the monomer or Corrole-COF materials was suspended in 1 mL of N-methylpyrrolidone (NMP) (equilibrated with air at RT) containing 10 μM of singlet oxygen sensor 1,3-diphenylisobenzofuran (DPBF). The mixture solutions were irradiated under a 635 nm laser (0.18 W cm^−2). The characteristic UV-Vis absorption spectra of the DPBF were measured at 415 nm to determine the generation of ^1O2 every 1 min, in which the UV-Vis absorption spectra of samples were collected using a UV-1800 spectrophotometer (Shimadzu, Japan) with a 0.3 cm quartz cuvette at room temperature.
TPAPC-COF was evaluated for its ability to generate ^1O2 (FIGS. 8A and 7B). The photo-generating ^1O2 ability of TPAPC-COF under a 635 nm laser (0.18 W/cm^2) irradiation was investigated by using 1,3-diphenylisobenzofuran (DPBF) as a scavenger, and the process was monitored by time-dependent electronic absorption spectroscopy.

## Nc1ccc(-c2c3nc(c4ccc([nH]4)c(-c4ccc(N)cc4)c4ccc([nH]4)c(-c4ccc(N)cc4)c4ccc2[nH]4)C=C3)cc1 [H3TPAPC, 5,10,15-tris(p-aminophenyl)corrole]
  degradation efficiency (conversion) of DPBF: 56%
